“Also recorded” adds a separate entry of the source. *1 amine or outer side, *2 acyl side, *3 side chain or, on linkers, in order; H or OH if unused. Where a SMILES comes first, the peptide text is derived from it. Bridges are numbered along the chain shown (N, C = ends). Roman numbers before positions name the chains, in order. [ ]: non-standard residue; d: D form. Actinocin(9to1) = Cc1c2oc3c(C)ccc(C(=O)[*:1])c3nc-2c(C(=O)[*:2])c(N)c1=O; NMeV = CN[C@H](C(=O)O)C(C)C; Sar = CNCC(=O)O
Experiments:
[1] = test system: mtPTP; assay: Ca++-activation of the mtPTP in liver mitochondria, irreversible release of TPP+; assay type: biochemical, mouse
Procedure: The mitochondria were energized with succinate in the presence of TPP^+. TPP^+ is accumulated into the mitochondrial matrix in proportion to ΔP, and its concentration in the suspension medium is monitored using a TPP^+ sensitive electrode. Aliquots of Ca^++ are then added to the reaction solution, with each addition causing a transient release of TPP^+ as the Ca^++ is taken into the mitochondria at the expense of ΔP. […] At this juncture, ΔP collapses and the mitochondrial TPP^+ is irreversibly released into the suspension medium. The amount of Ca^++ required to cause irreversible release of TPP^+ provides a quantitative measurement of mtPTP sensitivity.
To determine if the ANTs provide a regulatory function for the mtPTP, ANT-deficient and control liver mitochondria were loaded with TPP^+ and then Ca^++ was added in the presence or absence of various mtPTP effectors until the TPP^+ was irreversibly released. The relative levels of Ca^++ required for permeability transition were then compared.
The calcium sensitivity of the mtPTP was calculated from 10 nmol CaCl2 additions to a reaction vessel containing 1 mg of mitochondrial protein in 1.0 ml of 250 mM sucrose, 10 mM MOPS, 2 mM K2HPO4, pH 7.2, and 5 mM succinate. Irreversible release of TPP^+ from the mitochondria was indicative of mtPTP activation.

[2] = test system: mouse hepatocytes; assay: Induction of apoptosis in primary hepatocytes, apoptotic nuclei by Hoechst 33258 staining; assay type: cell-based; details: ANT-deficient and ANT-control hepatocytes; agent alone; 12 h
Procedure: Primary hepatocytes from ANT-deficient and ANT-control mice were cultured on collagen-coated cover glasses and treated with Fas ligand and Actinomycin D. After 12 h, cells were stained with Hoechst 33258 and images were acquired with a Zeiss Axio-10 fluorescence microscope. Cells with chromatin condensation and nuclei fragmentation were counted as apoptotic.
Hepatocytes were isolated from 12 to 15 month old anesthetized mice, perfused in situ with collagenase-dispase medium (Invitrogen, Carlsbad, Calif.). The hepatocytes were gently released, filtered and cultured on collagen coated cover glasses or plates in Waymouth's MB-752/1 medium containing 27 mM NaHCO3, 2 mM L-glutamine, 10% fetal calf serum, 0.5 μg/ml insulin, 0.5 μg/ml transferrin, 0.5 ng/ml sodium selenate and 100 nM dexamethasone (49). […]
Fas ligand-TNFα+Actinomycin D induced apoptosis was monitored by detection of apoptotic nuclei by staining with 10 μg/ml of Hoechst 33258 (Molecular Probes, Eugene, Oreg.) (9). Br-A23187-induced cell death after 1 h treatment was monitored by measuring the percentage of lactate dehydrogenase (LDH) released into the culture medium as a percentage of the activity in a Triton X-100 total cell lysate.

[3] = test system: mtPTP; details: ANT-deficient and ANT-control mitochondria; 1 μM FCCP in the presence of Ca++
Procedure: To determine if the mtPTP could still exist in the absence of ANT, we isolated mitochondria from livers of Ant1^−/−, Ant2^fl/Y, Alb-Cre (ANT-deficient) and Ant1^−/−, Ant2^fl/Y (ANT-control) mice. […] The opening of the pore was monitored by following mitochondrial swelling through decreased light scattering.
Mitochondria (1 mg protein) were incubated in 1.5 ml of the above reaction medium with 16.5 nmol CaCl2. After two minutes 0.1 uM ruthenium red was added followed by FCCP.

[4] = test system: liver mitochondria; assay: ADP stimulation of respiration in liver mitochondria (oxygen consumption, succinate); assay type: biochemical, mouse; details: liver mitochondria from Ant1−/−, Ant2fl/Y, Alb-Cre (ANT-deficient) animals
Procedure: FIGS. 6A and 6B show ANT1 and ANT2 expression and respiration of control and ANT-deficient liver mitochondria. Liver mitochondria were isolated from Ant1^−/−, Ant2^fl/Y (ANT-control) or Ant1^−/−, Ant2^fl/Y, Alb-cre (ANT-deficient) mice. FIG. 6A: Western blot analysis using antibodies against ANT1 (left) and ANT2 (right). Heart mitochondria were used as a positive control for the presence of ANT1. ANT1 and ANT2, 30 kDa. FIG. 6B: Oxygen consumption was measured using succinate as substrate in ANT-control (left) and ANT-deficient (right) mitochondria. MITOS, addition of 600 μg of mitochondrial protein. ADP, 125 nmol ADP; FCCP (uncoupler), 75 nM.
Respiration and oxidative phosphorylation enzyme activities were measured polarographically and spectrophotometrically (42). The membrane potential was calculated from the mitochondrial uptake of TPP^+ using a TPP^+ sensitive electrode (44-47). The mtPTP was examined in liver 10-week-old Ant1^−/− or +/+, Ant2^fl/Y, Alb-Cre +/− animals.

[5] = ANT-control (Ant1−/−, Ant2fl/Y) liver mitochondria
[6] = ANT-deficient (Ant1−/−, Ant2fl/Y, Alb-Cre) liver mitochondria

Compound | effect on Ca++ activation of the mtPTP (Ca++ required for permeability transition) [1, 5] | effect on Ca++ activation of the mtPTP (Ca++ required for permeability transition) [1, 6] | other results
CC(C)(C)OO [t-H2O2, Tert-butyl hydroperoxide] | activated the mtPTP | activated the mtPTP | –
TNFα | – | – | induction of apoptosis [2]: did not induce apoptosis
CN(C)C(=O)/N=N/C(=O)N(C)C [DIA, diamide] | activated the mtPTP | activated the mtPTP | –
N#CC(C#N)=NNc1ccc(OC(F)(F)F)cc1 [FCCP, carbonyl cyanide p-(trifluoromethoxy)phenylhydrazone] | – | – | FCCP-induced mtPTP activation (mitochondrial swelling) [3]: responded equally well
Cc1c2oc3c(C)ccc(C(=O)N[C@@H]4C(=O)N[C@H](C(C)C)C(=O)N5CCC[C@H]5C(=O)N(C)CC(=O)N(C)[C@@H](C(C)C)C(=O)O[C@@H]4C)c3nc-2c(C(=O)N[C@@H]2C(=O)N[C@H](C(C)C)C(=O)N3CCC[C@H]3C(=O)N(C)CC(=O)N(C)[C@@H](C(C)C)C(=O)O[C@@H]2C)c(N)c1=O [Actinomycin D] (I: T[dV]P[Sar][NMeV] / II: T[dV]P[Sar][NMeV]; ester I:1-I:C, II:1-II:C; linker I:N-II:N via Actinocin(9to1)) | – | – | induction of apoptosis [2]: did not induce apoptosis
C=C1[C@@H]2CC[C@H]3[C@]4(C)C[C@H](O[C@@H]5O[C@H](CO)[C@@H](OS(=O)(=O)O)[C@H](OS(=O)(=O)O)[C@H]5OC(=O)CC(C)C)C[C@@H](C(=O)O)[C@H]4CC[C@]3(C2)[C@H]1O [ATR, atractyloside] | activated the mtPTP | no effect | –
Nc1ncnc2c1ncn2[C@@H]1O[C@H](COP(=O)(O)OP(=O)(O)O)[C@@H](O)[C@H]1O [ADP, adenosine diphosphate] | strongly inhibited | no effect; also recorded: without effect | stimulation of mitochondrial respiration [4]: could not be stimulated
